Measurements from US20250163009A1, “BENZOTHIA(DIA)ZEPINE COMPOUNDS FOR TREATMENT OF HBV AND HDV” (Assembly Biosciences, Inc., priority 2022, published 2025).

System: HBV
Assay: HepG2-NTCP infection protocol, HBeAg quantification by ECL-ELISA
Assay type: cell-based
Conditions: Hepatitis B virus, HepG2-NTCP cells infected with HBV at MOI 50; compound 24 hours, then 72 hours; HBeAg in supernatant
Method: HepG2 cells expressing the sodium taurocholate cotransporting polypeptide (HepG2-NTCP) were maintained in culture using HepG2-NTCP growth medium (DMEM (HyClone, Cat #SH30243.02) supplemented with 10% FBS, 150 μg/mL G418 (Alfa Aesar, Cat #J62671), 50 U/mL penicillin-streptomycin (Invitrogen, Cat #15140-122), and 0.5 μg/mL blasticidin (Sigma, Cat #15205)). Prior to infection, the cells were washed twice with 1×DPBS (Invitrogen, Cat #14190-136) and treated with 3 mL of 0.05% trypsin (Invitrogen, Cat #25200-056) to dissociate the cells. Following dissociation, 10 mL of HepG2-NTCP growth medium was added to the cells to neutralize the trypsin and the cells were then centrifuged at 1,300 rpm for 5 minutes. Following centrifugation, the cells were resuspended in 10 mL of HepG2-NTCP growth medium, counted, and then centrifuged at 1,300 rpm for 5 minutes. The cell pellet was resuspended in DMEM supplemented with 5% FBS, 50 U/mL penicillin-streptomycin, 4% PEG-8000 (Hamilton Research, Cat #HR2-515), and 1% DMSO (Sigma, Cat #D4540) to a density of 5.6×10^5 cells/mL and infected with HBV at an MOI of 50. Immediately after infection, 90 μL of the cell/HBV mixture was added to a 96-well plate containing 10 μL of compound and incubated at 37° C. for 24 hours (2% final DMSO concentration). After the incubation, the infection media was removed and replaced with DMEM supplemented with 5% FBS, 50 U/mL penicillin-streptomycin, and 1% DMSO and incubated for an additional 72 hours. At the end of the incubation, the plates were spun at 1,800 rpm for 8 minutes and the supernatant was removed for HBeAg quantification using electrochemiluminescence enzyme-linked immunosorbent assays (ECL-ELISA).
To conduct the HBeAg ECL-ELISA, Lumitrack high-binding 96-well plates (Greiner, Cat #655074) were treated with 625 ng/mL HBeAg mAb (Biocheck, Cat #70426) in 1×DPBS for 2 hours at 25° C. with shaking. The HBeAg mAb solution was then removed and the plates treated with 1×DPBS containing 0.5% bovine serum albumin (BSA) (Sigma, Cat #A7030-100 g) for 2 hours at 25° C. with shaking. The HBeAg-coated plates were then washed 4 times with 1×DPBS containing 0.05% Tween 20 (DPBS-T) (Thermo Fisher Scientific, Cat #J61544-K2). Following the wash, 90 μL of HRP-conjugated antibody (Fitzgerald, Cat #61-H10K), diluted 1:8,000 in 1×DPBS-T containing 0.5% BSA, was added to the HBeAg-coated plates along with 10 μL of sample. The plates were then incubated for 2 hours at 25° C. with shaking. Following the incubation, the sample was then removed and 200 μL of 1×PBS-T was added and the plates were incubated for 10 minutes at 25° C. with shaking. The plates were then washed 6 times with 1×PBS-T and blotted dry. 80 μL of ECL substrate (Millipore, Cat #WBKLS0500) was then added to the plate and the luminescence was measured using a Tecan M1000 Pro plate reader.

Compound: CCCCC1CN([C@H]2CC[C@H](OC)CC2)c2cc(SC)c(O/C=C(\F)C(=O)O)cc2S(=O)(=O)N1C (stereo partly shown) [Example 56]
- EC50: < 100 nM
